According to the supplement of paper PMC10307832:

Columns and labels:
Experiment in all cases: relative viability (nuclei count vs DMSO), 5 days (fraction); higher = more cells survive
[1] = compound: O[C@@H](COc1cccc2ncccc12)CN1CCN([C@@H]2c3ccccc3[C@@H]3[C@H](c4ccccc42)C3(F)F)CC1 [Zosuquidar] + O=C(CCCCCCC(=O)Nc1ccccc1)NO [Vorinostat] (partner 1 µM)
Procedure, shortened: (§1)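 Relative viability divides the nuclei count in treated wells by that in vehicle wells. Lung cancer cell lines were seeded in 1536-well plates, dosed by pin tool the next day, and fixed and stained after 5 days in one step with final 0.05% Triton X-100, 1% formaldehyde and 1 ug/ml Hoechst. Dosing was a single drug or a fixed anchor-drug dose plus five library-drug doses (not always all listed) in √10 steps, and values are medians of duplicate plates imaged at 4×.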

[2] = compound: C1=CC(=CC=C1NC(=S)NNC2=C(C=C(C=C2[N+](=O)[O-])C(F)(F)F)[N+](=O)[O-])F [Kobe2602] + COc1cccc2cc(-c3nc([C@H]4CC[C@H](C(=O)O)CC4)n4ncnc(N)c34)[nH]c12 [OSI-027] (partner 0.5 µM)
Procedure, shortened: as §1

[3] = compound: COc1cc2nccc(Oc3ccc(NC(=O)C4(C(=O)Nc5ccc(F)cc5)CC4)cc3)c2cc1OC [Cabozantinib] + Cc1cc(Nc2cc(N3CCN(C)CC3)nc(Sc3ccc(NC(=O)C4CC4)cc3)n2)n[nH]1 [Tozasertib] (partner 0.1 µM)
Procedure, shortened: as §1

[4] = compound: O[C@@H](COc1cccc2ncccc12)CN1CCN([C@@H]2c3ccccc3[C@@H]3[C@H](c4ccccc42)C3(F)F)CC1 [Zosuquidar] + C[C@@H](Oc1cc(-c2cnn(C3CCNCC3)c2)cnc1N)c1c(Cl)ccc(F)c1Cl [Crizotinib] (partner 1 µM)
Procedure, shortened: as §1

Cell Line | relative viability ([1]; first compound 0.01 µM) | relative viability ([1]; first compound 0.03162 µM) | relative viability ([1]; first compound 0.1 µM) | relative viability ([1]; first compound 0.3162 µM) | relative viability ([1]; first compound 1 µM) | relative viability ([2]; first compound 0.2 µM) | relative viability ([2]; first compound 0.6325 µM) | relative viability ([2]; first compound 2 µM) | relative viability ([2]; first compound 6.325 µM) | relative viability ([2]; first compound 20 µM) | relative viability ([3]; first compound 0.02 µM) | relative viability ([3]; first compound 0.06325 µM) | relative viability ([3]; first compound 0.6325 µM) | relative viability ([3]; first compound 2 µM) | relative viability ([4]; first compound 0.01 µM) | relative viability ([4]; first compound 0.03162 µM) | relative viability ([4]; first compound 0.1 µM) | relative viability ([4]; first compound 0.3162 µM) | relative viability ([4]; first compound 1 µM) | relative viability ([3]; first compound 0.2 µM)
PC-14 | 0.826 | 0.673 | 0.721 | 0.831 | 0.761 | 0.836 | 0.887 | 0.87 | 0.792 | 0.339 | 0.656 | 0.668 | 0.547 | 0.526 | 0.837 | 1.02 | 0.801 | 0.938 | 0.759 | 
EMC-BAC-2 | 0.457 | 0.438 | 0.489 | 0.528 | 0.258 | 0.365 | 0.512 | 0.381 | 0.413 | 0.421 | 0.292 | 0.335 | 0.284 | 0.295 | 0.78 | 0.724 | 0.767 | 0.843 | 0.765 | 0.334
NCI-H1437 | 0.849 | 0.957 | 0.851 | 0.857 | 0.832 | 0.913 | 0.913 | 0.891 | 0.949 | 0.855 | 0.413 | 0.454 | 0.428 | 0.347 | 0.868 | 0.994 | 0.92 | 0.911 | 0.897 | 0.411
NCI-H2405 | 1.07 | 0.963 | 1.01 | 1.05 | 0.31 | 0.609 | 0.616 | 0.619 | 0.727 | 0.719 | 0.743 | 0.856 | 0.789 | 0.667 | 0.889 | 0.82 | 0.757 | 0.819 | 0.825 | 0.777
NCI-H1666 | 1 | 0.868 | 1.01 | 1.04 | 1.03 | 0.879 | 0.831 | 0.851 | 0.928 | 0.789 | 0.628 | 0.644 | 0.619 | 0.673 | 1.02 | 0.975 | 1.18 | 0.986 | 1.08 | 0.622
NCI-H1993 | 0.958 | 0.603 |  | 0.835 | 0.885 | 0.552 | 0.511 | 0.544 | 0.569 | 0.597 | 0.546 | 0.625 | 0.572 | 0.542 | 0.864 | 0.859 | 0.789 | 1.01 | 0.881 | 0.565
COR-L23 | 0.493 | 0.515 | 0.472 | 0.517 | 0.509 | 0.744 | 0.782 | 0.71 | 0.811 | 0.737 | 0.235 | 0.212 | 0.145 | 0.137 | 0.661 | 0.699 | 0.787 | 0.647 | 0.716 | 0.194
HCC-44 | 1.1 | 1.18 | 1.18 | 1.12 | 1.05 | 0.484 | 0.597 | 0.377 | 0.586 | 0.683 |  | 1.27 | 1 | 0.758 | 0.761 | 0.828 | 0.84 | 0.846 | 0.804 | 0.979
LU99A | 0.476 | 0.423 | 0.463 | 0.618 | 0.544 | 0.336 | 0.329 | 0.281 | 0.342 | 0.333 | 0.27 | 0.245 | 0.255 | 0.224 | 0.499 | 0.671 | 0.484 | 0.607 | 0.571 | 0.258
NCI-H596 | 0.555 | 0.637 | 0.709 | 0.761 | 0.661 | 0.802 | 0.698 | 0.661 | 0.56 | 0.815 | 0.95 | 0.8 | 0.905 | 0.767 | 1.03 | 0.898 | 1.01 | 1.06 | 1.02 | 0.924
NCI-H727 | 1.12 | 1.32 |  | 1.11 | 1.29 | 0.57 | 0.604 | 0.744 | 0.545 | 0.888 | 0.53 | 0.777 | 0.513 | 0.554 | 0.905 | 0.925 | 0.732 | 0.798 | 0.925 | 0.513
NCI-H1975 | 0.745 | 0.681 | 0.75 | 0.746 | 0.751 | 0.673 | 0.79 | 0.687 | 0.676 | 0.669 | 0.761 | 0.78 | 0.435 | 0.295 | 0.923 | 0.941 | 1.01 | 0.924 | 1.09 | 0.699
NCI-H1355 | 0.621 | 0.644 | 0.602 | 0.652 | 0.669 | 0.395 | 0.389 | 0.411 | 0.41 | 0.441 | 0.583 | 0.66 | 0.503 | 0.356 | 1.05 | 0.997 | 0.987 | 1.15 | 1.05 | 0.502
NCI-H1755 | 0.657 | 0.883 | 0.694 | 0.845 | 0.729 | 0.748 | 0.726 | 0.685 | 0.705 | 0.747 | 0.673 | 0.666 | 0.529 | 0.539 | 0.859 | 0.924 | 0.839 | 0.881 | 0.876 | 0.618
NCI-H2009 | 0.688 | 0.658 | 0.654 | 0.773 | 0.664 | 0.568 | 0.737 | 0.591 | 0.637 | 0.452 | 0.827 | 0.889 | 0.699 | 0.668 | 1.02 | 1.01 | 1.05 | 1.06 | 1.01 | 0.768
HCC-78 | 0.465 |  |  | 0.512 | 0.402 | 0.39 | 0.375 | 0.722 | 0.385 | 0.44 |  | 0.414 | 0.367 | 0.311 | 0.352 | 0.321 |  | 0.362 | 0.322 | 0.445
NCI-H322M | 0.916 | 1.08 | 0.652 | 0.896 | 0.731 | 0.573 | 0.623 | 0.544 | 0.559 | 0.557 | 0.488 | 0.511 | 0.439 | 0.436 | 0.896 | 0.929 | 0.861 | 0.739 | 0.91 | 0.425
HOP-62 | 0.528 | 0.624 | 0.585 | 0.836 | 0.593 | 0.829 | 0.992 | 0.826 | 0.854 | 0.844 | 0.398 | 0.388 | 0.376 | 0.346 | 0.829 | 1.01 | 0.85 | 1 | 0.864 | 0.378
NCI-H838 | 0.744 | 0.793 | 0.791 | 0.755 | 0.806 | 0.427 | 0.433 | 0.397 | 0.417 | 0.371 | 0.314 | 0.296 | 0.259 | 0.219 | 0.802 | 0.789 | 0.849 | 0.901 | 0.779 | 0.288
LK-2 | 0.232 | 0.311 | 0.283 | 0.298 | 0.335 | 0.231 | 0.208 | 0.239 | 0.248 | 0.212 |  | 0.169 | 0.18 | 0.175 | 0.237 | 0.218 | 0.28 | 0.274 | 0.224 | 
BEN | 0.548 | 0.579 | 0.574 | 0.662 | 0.553 | 0.295 | 0.293 | 0.326 | 0.282 | 0.319 | 0.512 | 0.474 | 0.56 | 0.461 | 1.01 | 0.923 | 0.827 | 0.821 | 0.77 | 0.507
NCI-H23 | 0.536 |  | 0.57 | 0.695 | 0.662 | 0.499 | 0.673 | 0.541 | 0.638 | 0.667 |  | 0.47 | 0.325 | 0.292 | 0.467 | 0.495 | 0.512 | 0.534 | 0.478 | 0.387
ChaGo-K-1 | 0.741 | 0.657 | 0.796 | 0.781 | 0.733 | 0.485 | 0.543 | 0.622 | 0.541 | 0.47 | 0.263 | 0.203 | 0.23 | 0.201 | 1.08 | 1.2 | 1.32 | 1.1 | 1.13 | 0.234
NCI-H1944 | 0.524 | 0.528 | 0.543 | 0.672 | 0.535 | 0.453 | 0.48 | 0.391 | 0.416 | 0.464 | 0.275 | 0.274 | 0.257 | 0.238 | 1.03 | 1.09 | 1.03 | 1.04 | 1.12 | 0.238
NCI-H2085 | 0.807 | 0.753 |  | 0.907 | 0.767 | 0.685 | 0.898 |  | 0.677 | 0.799 | 0.87 | 0.852 | 0.655 | 0.527 | 0.822 | 0.823 | 0.899 | 0.792 | 0.874 | 0.818
LC-2-ad | 0.681 | 0.774 | 0.722 | 0.683 | 0.674 | 0.775 | 0.823 | 0.824 | 0.865 | 1.02 |  | 0.454 | 0.456 | 0.392 | 0.443 | 0.508 | 0.451 | 0.449 | 0.46 | 0.46
201T | 0.886 | 0.942 | 0.799 | 0.997 | 0.962 | 0.815 | 0.802 | 0.764 |  | 0.603 | 0.968 | 1.1 | 0.935 | 0.87 | 0.986 | 0.891 | 0.996 | 0.983 | 1.04 | 0.916
